Experimental data reported in patent US7643943B2, “Methods for monitoring drug activities in vivo” (Wyeth LLC, priority 2003, dated 2010).

Experiments:
[1] = Pharmacokinetics of CCI-779 in patients with cancer following intravenous administration; details: human, whole blood
Source text: The pharmacokinetics of CCI-779 is being studied in patients with cancer receiving CCI-779 either alone or in combination with other chemotherapeutic agents following intravenous administration. Intravenous dosage schedules previously investigated include a cyclical schedule (daily for 5 days every two weeks) and a once-weekly regimen. […] The following examples evaluated the safety, efficacy, and pharmacokinetic/pharmacodynamic relationship to clinical response of three doses of CCI-779, when administered to patients with advanced, refractory renal cell cancer (RCC).

[2] = system: transcripts in patient PBMCs; assay: Spearman's rank correlation of changes in PBMC gene expression (HgU95A arrays) with cumulative AUCsum; format: in vivo, human; details: change in PBMC expression from baseline
Source text: Consent for the pharmacogenomic portion of the clinical study was received and the project was approved by the local Institutional Review Boards at the participating clinical sites. Blood samples for pharmacogenomic characterization were drawn into cell purification tubes (CPT, Becton Dickinson) prior to therapy and following approximately 8 and 16 weeks of treatment. All blood samples were shipped overnight to the Wyeth Department of Molecular Medicine in Andover, Mass., and PBMCs were isolated from the whole blood samples (8 mL) in CPT tubes according to the manufacturer's procedure. For expression profiling analyses, total RNA was isolated from PBMC pellets using the RNeasy mini kit (Qiagen, Valencia, Calif.) and labeled probe for oligonucleotide arrays was prepared using a modification of the procedure described by Lockhart, et al., NAT. BIOTECHNOL., 14:1675-1680 (1996). […] The “average difference” values for each transcript were normalized to “frequency” values using the scaled frequency normalization method (Hill, et al, GENOME BIOL. 2:research0055.1-0055.13 (2001)) in which the average differences for 11 control cRNAs with known abundance spiked into each hybridization solution were used to generate a global calibration curve. This calibration was then used to convert average difference values for all transcripts to frequency estimates, stated in units of parts per million ranging from 1:300,000 (˜3 parts per million (ppm)) to 1:1000 (1000 ppm). PBMC gene expression data were normalized by the scaled frequency normalization method as described above. […] The filter which removes transcripts called absent in all samples is based upon the absent/present decision call made by the […] 3.2 software, which reflects the relative intensity of hybridization of the labeled probes to perfectly matched oligonucleotides versus hybridization to mismatched oligonucleotides for each transcript on the HgU95A chip. The filter that removes transcripts with a frequency of less than 10 ppm in all samples is designed to remove low abundance transcripts which may have variable expression in technical replicates. […] Changes from pretreatment levels were calculated based on log-transformed expression levels. […] Pairwise correlations were calculated to assess the association between individually derived exposure metrics and gene expression levels measured by HgU95A Affymetrix microarrays during the course of therapy. Correlations were run for two pharmacokinetic parameters—cumulative AUC and cumulative AUCsum, and for four measures of expression level—log2-transformed scaled frequency at 8 weeks, log2-transformed scaled frequency at 16 weeks, the difference between log2-transformed scaled frequency at 8 weeks and baseline, and the difference between log2-transformed scaled frequency at 16 weeks and baseline. Spearman's rank correlations, which are not sensitive to potential non-normal distributional properties of the pharmacokinetic parameters, were computed. The p-value for the hypothesis that the correlation was equal to 0 was calculated for each pairwise correlation. […] The results of permutation tests run for cumulative AUCsum vs expression change at 8 weeks and at 16 weeks are shown in Tables 5a and 5b. […] Table 6 also includes FARP1 (Accession No. A1701049). […] Accession numbers for the 19 transcripts are presented in Table 6, along with columns indicating the coefficient of variation observed in healthy individuals (% CV), the p-value observed in the Spearman correlation, the actual magnitude of the correlation, and the corresponding gene names.

clinical = details: human, whole blood
Protocol: In a randomized, double-blind, multicenter trial, once-weekly intravenous doses of 25-, 75-, or 250-mg of CCI-779 were administered to patients with advanced renal cancer that were either previously treated, or untreated and not appropriate candidates for high dose interlukin-2 therapy. Whole blood for CCI-779 and metabolite concentrations was drawn for population pharmacokinetic analysis, and Bayesian-predicted area under the concentration-time curves for parent drug (AUC), parent plus metabolite (AUCsum), and cumulative AUC and AUCsum were derived.
For CCI-779 clearance, factors for dose, attenuation of exposure with multiple-dose, and effect of body surface area were included.
The following examples were based on a randomized, double-blind, multicenter, outpatient phase 2 study of CCI-779 administered by 30 minute intravenous infusion (via an automatic dispensing pump) in patients with advanced RCC. Eligible patients were randomly assigned to treatment in a 1:1:1 ratio to receive 25 mg, 75 mg, or 250 mg of CCI-779 weekly until evidence of disease progression.
Full pharmacokinetic profiling was planned in a subset of patients, with remaining patients to provide sparse sampling.
The bioanalytical method for CCI-779 was performed using whole blood in a liquid chromatography/tandem mass spectrometry (LC/MS/MS) procedure with deuterated internal standard.
In order to characterize the pharmacokinetic profiles of patients providing sparse blood sampling, fully and sparsely sampled patient data were analyzed collectively using a population pharmacokinetic method and the NONMEM application (version 1.0, Revision 5.0 on Windows NT 4.0 computer with Pentium processor, NONMEM Project Group, University of California at San Francisco, Calif.). […] Data were therefore modeled separately and segregated by analyte into two separate data sets with dose, time/duration of administration, and demographic information. […] Construction of the NONMEM infile was performed using SAS (version 8.1) on a Sun Microsystems mainframe computer with Sun OS 5.8. […] In both cases, the model-derived value for AUC for a given patient and analyte were obtained from the quotient of CCI-779 Dose/Clearance (CL), in which CL was obtained from Bayesian estimation and the POSTHOC option of NONMEM.
During model building, an exponential error model was applied to the kinetic model.

[3] = CCI-779 final population model, whole blood, RCC patients
[4] = CCI-779 model, 1,000 bootstrap sample runs
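For Inter-Patient Variability % on CL in this document: population pharmacokinetic analysis in NONMEM of pooled full and sparse blood sampling from patients, exponential error on kinetic parameters, proportional residual error, bootstrap check over 1,000 resamples.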
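For Inter-Patient Variability % on V2 in this document: population pharmacokinetic analysis in NONMEM of pooled full and sparse blood sampling from patients, exponential error on kinetic parameters, proportional residual error, bootstrap check over 1,000 resamples.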
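For Inter-Patient Variability % on V3 in this document: population pharmacokinetic analysis in NONMEM of pooled full and sparse blood sampling from patients, exponential error on kinetic parameters, proportional residual error, bootstrap check over 1,000 resamples.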
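For Intersubject variability on CL (ω^21), final model parameter estimate in this document: population pharmacokinetic analysis in NONMEM of pooled full and sparse blood sampling from patients, exponential error on kinetic parameters, proportional residual error, bootstrap check over 1,000 resamples.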

CO[C@H]1C[C@@H]2CC[C@@H](C)[C@@](O)(O2)C(=O)C(=O)N2CCCC[C@H]2C(=O)O[C@H]([C@H](C)C[C@@H]2CC[C@@H](OC(=O)C(C)(CO)CO)[C@H](OC)C2)CC(=O)[C@H](C)/C=C(\C)[C@@H](O)[C@@H](OC)C(=O)[C@H](C)C[C@H](C)/C=C/C=C/C=C/1C [CCI-779]
half-life [1]: ~14 h | clearance ([1]; 25 mg): ~333 mL/min | clearance ([1]; 250 mg): ~1670 mL/min | Correlation with AUCsum at 16 weeks: KIAA0857 ([2]; AB020664, P-value 0.0006): 0.69 | Correlation with AUCsum at 8 weeks: KIAA0857 ([2]; AB020664, P-value 0.9627): 0.01 | Correlation with AUCsum at 16 weeks: B4GALT3 ([2]; AF038661, P-value 0.0002): 0.73 | Correlation with AUCsum at 8 weeks: B4GALT3 ([2]; AF038661, P-value 0.2589): 0.21 | Correlation with AUCsum at 16 weeks: SLC25A11 ([2]; AF070548, P-value 0.0006): 0.69 | Correlation with AUCsum at 8 weeks: SLC25A11 ([2]; AF070548, P-value 0.0881): 0.32 | Correlation with AUCsum at 16 weeks: IKBKG ([2]; AF074382, P-value 0.0007): 0.68 | Correlation with AUCsum at 8 weeks: IKBKG ([2]; AF074382, P-value 0.1013): 0.30 | Correlation with AUCsum at 16 weeks: UNK_AI147237 ([2]; AI147237, P-value 0.0004): 0.70 | Correlation with AUCsum at 8 weeks: UNK_AI147237 ([2]; AI147237, P-value 0.0877): 0.32 | Correlation with AUCsum at 16 weeks: COX6A1 ([2]; AI540925, P-value 0.0002): −0.73 | Correlation with AUCsum at 8 weeks: COX6A1 ([2]; AI540925, P-value 0.0050): −0.50 | Correlation with AUCsum at 16 weeks: FARP1 ([2]; AI701049, P-value 0.001): 0.66 | Correlation with AUCsum at 8 weeks: FARP1 ([2]; AI701049, P-value 0.0089): 0.47 | Correlation with AUCsum at 16 weeks: U2AF65 ([2]; AI762438, P-value 0.0001): 0.74 | Correlation with AUCsum at 8 weeks: U2AF65 ([2]; AI762438, P-value 0.2209): 0.23 | Correlation with AUCsum at 16 weeks: UNK_AL022318 ([2]; AL022318, P-value 0.0005): 0.69 | Correlation with AUCsum at 8 weeks: UNK_AL022318 ([2]; AL022318, P-value 0.2617): 0.21 | Correlation with AUCsum at 16 weeks: UNK_AL046394 ([2]; AL046394, P-value 0.0002): 0.72 | Correlation with AUCsum at 8 weeks: UNK_AL046394 ([2]; AL046394, P-value 0.0999): 0.31 | Correlation with AUCsum at 16 weeks: UNK_H98552 ([2]; H98552, P-value 0.0003): 0.71 | Correlation with AUCsum at 8 weeks: UNK_H98552 ([2]; H98552, P-value 0.0308): 0.39 | Correlation with AUCsum at 16 weeks: DPEP1 ([2]; J05257, P-value 0.0005): 0.69 | Correlation with AUCsum at 8 weeks: DPEP1 ([2]; J05257, P-value 0.0348): 0.39 | Correlation with AUCsum at 16 weeks: CYP11A ([2]; M14565, P-value 0.0006): 0.69 | Correlation with AUCsum at 8 weeks: CYP11A ([2]; M14565, P-value 0.0838): 0.32 | Correlation with AUCsum at 16 weeks: TNNT1 ([2]; M19309, P-value 0.0004): 0.70 | Correlation with AUCsum at 8 weeks: TNNT1 ([2]; M19309, P-value 0.2684): 0.21 | Correlation with AUCsum at 16 weeks: PML ([2]; M79463, P-value 0.0007): 0.68 | Correlation with AUCsum at 8 weeks: PML ([2]; M79463, P-value 0.0378): 0.38 | Correlation with AUCsum at 16 weeks: SLC19A1 ([2]; U17566, P-value 0.0007): 0.68 | Correlation with AUCsum at 8 weeks: SLC19A1 ([2]; U17566, P-value 0.1220): 0.29 | Correlation with AUCsum at 16 weeks: USP11 ([2]; U44839, P-value 0.0001): 0.76 | Correlation with AUCsum at 8 weeks: USP11 ([2]; U44839, P-value 0.3998): 0.16 | Correlation with AUCsum at 16 weeks: ACTN4 ([2]; U48734, P-value 0.0003): 0.71 | Correlation with AUCsum at 8 weeks: ACTN4 ([2]; U48734, P-value 0.0721): 0.33 | Correlation with AUCsum at 16 weeks: FOXM1 ([2]; U90917, P-value 0.0001): 0.75 | Correlation with AUCsum at 8 weeks: FOXM1 ([2]; U90917, P-value 0.206): 0.24 | Correlation with AUCsum at 16 weeks: SULT2B1 ([2]; U92315, P-value 0.0005): 0.69 | Correlation with AUCsum at 8 weeks: SULT2B1 ([2]; U92315, P-value 0.1066): 0.30 | Inter-Patient Variability % on CL (CCI-779 final population model): 23.7% | Inter-Patient Variability % on V2 (CCI-779 final population model): 44.1% | Inter-Patient Variability % on V3 (CCI-779 final population model): 129% | Intersubject variability on CL (ω^21), final model parameter estimate (CCI-779 final population model): 0.056 | Intersubject variability on V2 (ω^22), final model parameter estimate (CCI-779 final population model): 0.194 | Intersubject variability on V3 (ω^23), final model parameter estimate (CCI-779 final population model): 1.67 | Proportional error (ε^2), final model parameter estimate (CCI-779 final population model): 0.157 | V1 (θ2), parameter estimate [3]: 37.6 L | V2 (θ4), parameter estimate [3]: 271 L | V3 (θ6), parameter estimate [3]: 323 L | Q2 (θ3), parameter estimate (CCI-779 final population model, TVQ2=6.48*DOSE^0.551): 6.48 L/h | Q3 (θ5), parameter estimate (CCI-779 final population model, TVQ3=0.258*DOSE^0.551): 0.258 L/h | INTR, inter-period variability on CL (θ8), parameter estimate (CCI-779 final population model, factor for multiple doses (DNUM=1)): 0.103 | Inter-period variability on CL (θ8), bootstrap sample median [4]: 0.110 | Intersubject variability on CL (ω^21), bootstrap sample median [4]: 0.215 | Intersubject variability on V2 (ω^22), bootstrap sample median [4]: 0.414 | Intersubject variability on V3 (ω^23), bootstrap sample median [4]: 1.08 | Proportional error (ε^2), bootstrap sample median [4]: 0.383 | Q2 (θ3), bootstrap sample median [4]: 6.46 L/h | Q3 (θ5), bootstrap sample median [4]: 0.267 L/h | V1 (θ2), bootstrap sample median [4]: 38.3 L | V2 (θ4), bootstrap sample median [4]: 275 L | V3 (θ6), bootstrap sample median [4]: 339 L | increase of clearance with BSA (for a given dose, patients with BSA values that range from 1.5 to 2 m^2): approximately 45% | clearance (clinical; intravenous): 24.2 mL/min | clearance (clinical; iv): 23.2 mL/min
